Data from ChEMBL document CHEMBL5625263, “Discovery of a novel series of selective macrocyclic PKCTheta inhibitors” (Bioorg Med Chem Lett, 2024).
Values after ≈ are worked out from the molar mass of the structure shown.

Columns and labels:
[1] = target: T1, Protein kinase C theta type (Homo sapiens, UniProt Q04759); assay: Inhibition of PKC theta in TCR-stimulated human PBMC assessed as inhibition of IL-2 release; assay type: cell-based
[2] = Solubility of the compound; assay type: physicochemical
[3] = Oral bioavailability in rat; assay type: ADME, organism-based; details: in vivo
[4] = Apparent permeability of a compound in human Caco-2 cells; assay type: ADME, cell-based
[5] = target: T1, Protein kinase C theta type; assay: Inhibition of PKC theta (unknown origin) in presence of ATP at Km
[6] = Efflux ratio of apparent permeability across basolateral to apical side over apical to basolateral side in human Caco-2 cells; assay type: ADME, cell-based
[7] = target: T2, Protein kinase C alpha type (Homo sapiens, UniProt P17252); assay: Inhibition of PKC alpha (unknown origin) in presence of 1 mM ATP
[8] = Metabolic stability in human hepatocytes assessed as intrinsic clearance measured per 10^6 cells; assay type: ADME, cell-based, Hepatocyte; details: read-out: CLH
[9] = Volume of distribution at steady state in rat; assay type: ADME; details: in vivo, read-out: Vdss
[10] = Clearance in rat; assay type: ADME; details: in vivo
[11] = target: T2, Protein kinase C alpha type; assay: Inhibition of PKC alpha (unknown origin) in presence of ATP at Km
[12] = target: T1, Protein kinase C theta type; assay: Inhibition of PKC theta (unknown origin) in presence of 1 mM ATP
[13] = Selectivity ratio of inhibition of MSK1 (unknown origin) to inhibition of PKC theta (unknown origin) at 1 mM ATP concentration
[14] = Selectivity ratio of inhibition of CLK1 (unknown origin) to inhibition of PKC theta (unknown origin) at 1 mM ATP concentration
[15] = Selectivity ratio of inhibition of HGK (unknown origin) to inhibition of PKC theta (unknown origin) at 1 mM ATP concentration
[16] = Selectivity ratio of inhibition of PKCeta (unknown origin) to inhibition of PKC theta (unknown origin) at 1 mM ATP concentration
[17] = Selectivity ratio of inhibition of PKCdelta (unknown origin) to inhibition of PKC theta (unknown origin) at 1 mM ATP concentration
[18] = Selectivity ratio of inhibition of PKACalpha (unknown origin) to inhibition of PKC theta (unknown origin) at 1 mM ATP concentration
[19] = Selectivity ratio of inhibition of RSK3 (unknown origin) to inhibition of PKC theta (unknown origin) at 1 mM ATP concentration
[20] = Selectivity ratio of inhibition of GSK3beta (unknown origin) to inhibition of PKC theta (unknown origin) at 1 mM ATP concentration
[21] = Selectivity ratio of inhibition of PKCbeta1 (unknown origin) to inhibition of PKC theta (unknown origin) at 1 mM ATP concentration
[22] = Selectivity ratio of inhibition of FLT3 (unknown origin) to inhibition of PKC theta (unknown origin) at 1 mM ATP concentration
[23] = Selectivity ratio of inhibition of TRKA (unknown origin) to inhibition of PKC theta (unknown origin) at 1 mM ATP concentration
[24] = Selectivity ratio of inhibition of PI3K-C2beta (unknown origin) to inhibition of PKC theta (unknown origin) at 1 mM ATP concentration
[25] = Selectivity ratio of inhibition of AURB (unknown origin) to inhibition of PKC theta (unknown origin) at 1 mM ATP concentration
[26] = target: Voltage-gated inwardly rectifying potassium channel KCNH2 (Homo sapiens, UniProt Q12809); assay: Inhibition of hERG; assay type: toxicity
[27] = Half life in rat; assay type: ADME; details: in vivo

Voltage-gated inwardly rectifying potassium channel KCNH2, sequence (Q12809 whole entry): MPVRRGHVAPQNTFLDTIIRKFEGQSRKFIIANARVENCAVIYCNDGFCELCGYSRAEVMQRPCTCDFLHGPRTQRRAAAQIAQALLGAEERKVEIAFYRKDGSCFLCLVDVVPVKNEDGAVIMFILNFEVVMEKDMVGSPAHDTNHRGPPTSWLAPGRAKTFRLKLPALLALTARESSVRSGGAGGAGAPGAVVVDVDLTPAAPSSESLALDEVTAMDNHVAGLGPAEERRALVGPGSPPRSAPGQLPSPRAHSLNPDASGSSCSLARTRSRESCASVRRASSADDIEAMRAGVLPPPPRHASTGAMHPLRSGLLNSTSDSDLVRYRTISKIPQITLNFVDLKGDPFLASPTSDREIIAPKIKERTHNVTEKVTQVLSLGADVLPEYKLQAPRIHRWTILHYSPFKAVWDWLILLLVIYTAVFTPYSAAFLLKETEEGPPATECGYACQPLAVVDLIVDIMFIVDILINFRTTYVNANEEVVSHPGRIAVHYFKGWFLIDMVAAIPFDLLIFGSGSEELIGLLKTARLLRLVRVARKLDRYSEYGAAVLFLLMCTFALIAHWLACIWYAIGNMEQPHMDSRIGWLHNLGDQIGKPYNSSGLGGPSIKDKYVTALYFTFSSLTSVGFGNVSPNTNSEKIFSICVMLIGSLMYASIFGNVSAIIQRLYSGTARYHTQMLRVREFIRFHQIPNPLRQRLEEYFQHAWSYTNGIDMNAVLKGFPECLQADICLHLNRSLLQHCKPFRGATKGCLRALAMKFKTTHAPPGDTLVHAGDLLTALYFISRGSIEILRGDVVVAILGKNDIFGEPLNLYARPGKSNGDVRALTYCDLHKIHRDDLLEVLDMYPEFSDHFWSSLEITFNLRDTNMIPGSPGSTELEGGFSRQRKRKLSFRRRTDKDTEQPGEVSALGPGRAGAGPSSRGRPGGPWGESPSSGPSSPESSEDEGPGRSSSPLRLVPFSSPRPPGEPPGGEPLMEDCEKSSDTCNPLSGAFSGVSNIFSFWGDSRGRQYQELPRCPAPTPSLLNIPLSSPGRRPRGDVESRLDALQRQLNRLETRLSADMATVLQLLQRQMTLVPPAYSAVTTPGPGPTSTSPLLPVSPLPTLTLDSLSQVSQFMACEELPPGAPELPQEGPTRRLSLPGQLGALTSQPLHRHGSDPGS
T1 sequence (Q04759 whole entry): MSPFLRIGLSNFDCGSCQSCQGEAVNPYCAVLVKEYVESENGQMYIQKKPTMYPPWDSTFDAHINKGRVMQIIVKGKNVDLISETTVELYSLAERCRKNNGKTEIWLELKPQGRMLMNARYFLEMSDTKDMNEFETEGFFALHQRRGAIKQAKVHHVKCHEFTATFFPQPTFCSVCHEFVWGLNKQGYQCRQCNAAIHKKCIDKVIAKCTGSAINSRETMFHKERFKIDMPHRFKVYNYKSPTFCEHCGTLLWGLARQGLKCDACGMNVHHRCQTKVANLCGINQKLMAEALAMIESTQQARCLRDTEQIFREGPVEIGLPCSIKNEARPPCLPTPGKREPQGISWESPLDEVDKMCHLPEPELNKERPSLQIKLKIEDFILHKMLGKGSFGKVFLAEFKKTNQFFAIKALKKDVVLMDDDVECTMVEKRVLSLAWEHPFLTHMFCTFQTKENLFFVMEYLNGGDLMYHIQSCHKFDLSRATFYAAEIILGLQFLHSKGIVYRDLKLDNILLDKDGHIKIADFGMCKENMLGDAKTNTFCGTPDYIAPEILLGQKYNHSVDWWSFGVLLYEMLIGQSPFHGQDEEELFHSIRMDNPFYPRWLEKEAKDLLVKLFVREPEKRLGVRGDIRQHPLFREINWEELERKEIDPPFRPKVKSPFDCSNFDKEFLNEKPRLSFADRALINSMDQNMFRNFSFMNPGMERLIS

## CC1CCC(C)n2ccc(=O)c3cc(F)c(nc32)-n2c(=O)[nH]c3nccc(c32)O1 (stereo not given)
[1]
  IC50: 17 nM
[2]
  solubility: 271 µM (≈ 107 µg/mL)
[3]
  bioavailability: 40%
[4]
  Papp: 2.1 ×10⁻⁶ cm/s
[5]
  IC50: < 0.5 nM
[6]
  efflux ratio: 13
[7]
  IC50: 550 nM
[8]
  hepatocyte CLint: < 4 µL/min/1e6 cells
[9]
  Vd: 3.2 L/kg
[10]
  clearance: 41 mL/min/kg
[11]
  IC50: 49 nM
[12]
  IC50: < 0.5 nM

## CC1CCN2c3nc(ccc3C(=O)NC2(C)C)-n2c(=O)[nH]c3nccc(c32)O1 (stereo not given)
[1]
  IC50: 6 nM
[2]
  solubility: 25 µM (≈ 9.51 µg/mL)
[3]
  bioavailability: 17%
[4]
  Papp: 0.9 ×10⁻⁶ cm/s
[5]
  IC50: < 0.1 nM
[6]
  efflux ratio: 65
[7]
  IC50: 487 nM
[13]
  Selectivity ratio: 5160
[14]
  Selectivity ratio: 1620
[15]
  Selectivity ratio: 14500
[16]
  Selectivity ratio: 997
[17]
  Selectivity ratio: 677
[18]
  Selectivity ratio: 25000
[19]
  Selectivity ratio: 2260
[20]
  Selectivity ratio: 17900
[21]
  Selectivity ratio: 911
[22]
  Selectivity ratio: 2450
[23]
  Selectivity ratio: 5180
[11]
  IC50: 57 nM
[12]
  IC50: 0.1 nM
[24]
  Selectivity ratio: 4640
[25]
  Selectivity ratio: 253

## CC1CCCOc2ccnc3[nH]c(=O)n(c23)-c2ccc3nccc1c3n2 (stereo not given)
[1]
  IC50: 4.2 nM
[4]
  Papp: 31 ×10⁻⁶ cm/s
[5]
  IC50: < 0.5 nM
[6]
  efflux ratio: 0.8
[7]
  IC50: 550 nM
[8]
  hepatocyte CLint: 36 µL/min/1e6 cells
[26]
  IC50: 24000 nM
[11]
  IC50: 59 nM
[12]
  IC50: < 0.5 nM

## CC1CCC(C)Oc2ccnc3[nH]c(=O)n(c23)-c2nc(c(C(N)=O)cc2F)O1 (stereo not given)
[1]
  IC50: 12 nM
[2]
  solubility: 145 µM (≈ 56.2 µg/mL)
[3]
  bioavailability: 69%
[4]
  Papp: 8 ×10⁻⁶ cm/s
[5]
  IC50: < 0.5 nM
[6]
  efflux ratio: 7
[7]
  IC50: 620 nM
[8]
  hepatocyte CLint: < 4 µL/min/1e6 cells
[11]
  IC50: 49 nM
[12]
  IC50: 0.9 nM

## CC1CCOc2ccnc3ccc(nc23)-n2c(=O)[nH]c3nccc(c32)O1 (stereo not given)
[1]
  IC50: 255 nM
[4]
  Papp: 26 ×10⁻⁶ cm/s
[5]
  IC50: 4.2 nM
[6]
  efflux ratio: 1
[7]
  IC50: 7900 nM
[8]
  hepatocyte CLint: < 4 µL/min/1e6 cells
[26]
  IC50: > 30000 nM
[11]
  IC50: 980 nM
[12]
  IC50: 54 nM

## CC1CCN(C)c2c(F)cnc3cc(F)c(nc23)-n2c(=O)[nH]c3nccc(c32)O1 (stereo not given)
[1]
  IC50: 9.1 nM
[3]
  bioavailability: 58%
[4]
  Papp: 18 ×10⁻⁶ cm/s
[5]
  IC50: < 0.5 nM
[6]
  efflux ratio: 1
[7]
  IC50: 934 nM
[13]
  Selectivity ratio: 576
[14]
  Selectivity ratio: 858
[15]
  Selectivity ratio: 36
[16]
  Selectivity ratio: 62
[17]
  Selectivity ratio: 166
[18]
  Selectivity ratio: 754
[8]
  hepatocyte CLint: 4 µL/min/1e6 cells
[19]
  Selectivity ratio: 649
[20]
  Selectivity ratio: 187
[21]
  Selectivity ratio: 709
[22]
  Selectivity ratio: 174
[26]
  IC50: 13000 nM
[23]
  Selectivity ratio: 353
[11]
  IC50: 56 nM
[12]
  IC50: 1.2 nM
[24]
  Selectivity ratio: 332
[25]
  Selectivity ratio: > 8330

## CC1CCC(C)n2ccc(=O)c3ccc(nc32)-n2c(=O)[nH]c3nccc(c32)O1 (stereo not given)
[1]
  IC50: 26 nM
[2]
  solubility: 123 µM (≈ 46.4 µg/mL)
[3]
  bioavailability: 20%
[4]
  Papp: 4 ×10⁻⁶ cm/s
[5]
  IC50: < 0.5 nM
[6]
  efflux ratio: 8
[7]
  IC50: 790 nM
[13]
  Selectivity ratio: 945
[14]
  Selectivity ratio: > 6250
[15]
  Selectivity ratio: > 6250
[16]
  Selectivity ratio: 482
[17]
  Selectivity ratio: 346
[18]
  Selectivity ratio: > 6250
[8]
  hepatocyte CLint: < 4 µL/min/1e6 cells
[9]
  Vd: 2.7 L/kg
[19]
  Selectivity ratio: 4910
[20]
  Selectivity ratio: 4540
[21]
  Selectivity ratio: 262
[22]
  Selectivity ratio: 1310
[10]
  clearance: 36 mL/min/kg
[23]
  Selectivity ratio: 2200
[11]
  IC50: 140 nM
[12]
  IC50: 1.6 nM
[24]
  Selectivity ratio: 3050
[25]
  Selectivity ratio: 2850

## CC1CC(C)Oc2ccnc3[nH]c(=O)n(c23)-c2cccc(n2)O1 (stereo not given)
[1]
  IC50: 58 nM
[2]
  solubility: 95 µM (≈ 29.7 µg/mL)
[3]
  bioavailability: 50%
[4]
  Papp: 32 ×10⁻⁶ cm/s
[5]
  IC50: 2 nM
[6]
  efflux ratio: 0.6
[7]
  IC50: 6000 nM
[13]
  Selectivity ratio: 142
[14]
  Selectivity ratio: > 370
[15]
  Selectivity ratio: 40
[16]
  Selectivity ratio: 43
[17]
  Selectivity ratio: 99
[18]
  Selectivity ratio: > 370
[8]
  hepatocyte CLint: < 4 µL/min/1e6 cells
[9]
  Vd: 1.8 L/kg
[19]
  Selectivity ratio: > 370
[20]
  Selectivity ratio: > 370
[21]
  Selectivity ratio: 188
[22]
  Selectivity ratio: 78
[10]
  clearance: 12 mL/min/kg
[23]
  Selectivity ratio: > 370
[11]
  IC50: 820 nM
[12]
  IC50: 27 nM
[24]
  Selectivity ratio: > 370
[25]
  Selectivity ratio: > 370

## CC1CCN(C)c2ccnc3ccc(nc23)-n2c(=O)[nH]c3nccc(c32)O1 (stereo not given)
[1]
  IC50: 6.5 nM
[4]
  Papp: 14 ×10⁻⁶ cm/s
[5]
  IC50: < 0.5 nM
[6]
  efflux ratio: 2
[7]
  IC50: 940 nM
[8]
  hepatocyte CLint: < 4 µL/min/1e6 cells
[26]
  IC50: < 400 nM
[11]
  IC50: 82 nM
[12]
  IC50: 1 nM

## CC1CCN(C)c2ccnc3cc(F)c(nc23)-n2c(=O)[nH]c3nccc(c32)O1 (stereo not given)
[1]
  IC50: 1.9 nM
[5]
  IC50: < 0.5 nM
[7]
  IC50: 190 nM
[8]
  hepatocyte CLint: 10 µL/min/1e6 cells
[26]
  IC50: 2400 nM
[11]
  IC50: 25 nM
[12]
  IC50: < 0.5 nM

## CC1CCCOc2nc(ccc2C(N)=O)-n2c(=O)[nH]c3nccc(c32)O1 (stereo not given)
[1]
  IC50: 29 nM
[2]
  solubility: 300 µM (≈ 107 µg/mL)
[3]
  bioavailability: 53%
[4]
  Papp: 3.9 ×10⁻⁶ cm/s
[5]
  IC50: 0.9 nM
[6]
  efflux ratio: 8
[7]
  IC50: 6500 nM
[13]
  Selectivity ratio: 322
[14]
  Selectivity ratio: 66
[27]
  half-life: 2.2 h
[15]
  Selectivity ratio: 51
[16]
  Selectivity ratio: 43
[17]
  Selectivity ratio: 38
[18]
  Selectivity ratio: 501
[19]
  Selectivity ratio: 311
[20]
  Selectivity ratio: 66
[21]
  Selectivity ratio: 147
[22]
  Selectivity ratio: 21
[10]
  clearance: 19.6 mL/min/kg
[23]
  Selectivity ratio: 491
[11]
  IC50: 770 nM
[12]
  IC50: 12 nM
[24]
  Selectivity ratio: 133
[25]
  Selectivity ratio: 763
